{"source": "patent US20230115176A1", "about": "(Ra Pharmaceuticals, Inc., priority 2019, published 2023)", "key": {"[1]": {"molecular_target": "purified human C5 (Homo sapiens, UniProt P01031)", "sequence (P01031 19-1676)": "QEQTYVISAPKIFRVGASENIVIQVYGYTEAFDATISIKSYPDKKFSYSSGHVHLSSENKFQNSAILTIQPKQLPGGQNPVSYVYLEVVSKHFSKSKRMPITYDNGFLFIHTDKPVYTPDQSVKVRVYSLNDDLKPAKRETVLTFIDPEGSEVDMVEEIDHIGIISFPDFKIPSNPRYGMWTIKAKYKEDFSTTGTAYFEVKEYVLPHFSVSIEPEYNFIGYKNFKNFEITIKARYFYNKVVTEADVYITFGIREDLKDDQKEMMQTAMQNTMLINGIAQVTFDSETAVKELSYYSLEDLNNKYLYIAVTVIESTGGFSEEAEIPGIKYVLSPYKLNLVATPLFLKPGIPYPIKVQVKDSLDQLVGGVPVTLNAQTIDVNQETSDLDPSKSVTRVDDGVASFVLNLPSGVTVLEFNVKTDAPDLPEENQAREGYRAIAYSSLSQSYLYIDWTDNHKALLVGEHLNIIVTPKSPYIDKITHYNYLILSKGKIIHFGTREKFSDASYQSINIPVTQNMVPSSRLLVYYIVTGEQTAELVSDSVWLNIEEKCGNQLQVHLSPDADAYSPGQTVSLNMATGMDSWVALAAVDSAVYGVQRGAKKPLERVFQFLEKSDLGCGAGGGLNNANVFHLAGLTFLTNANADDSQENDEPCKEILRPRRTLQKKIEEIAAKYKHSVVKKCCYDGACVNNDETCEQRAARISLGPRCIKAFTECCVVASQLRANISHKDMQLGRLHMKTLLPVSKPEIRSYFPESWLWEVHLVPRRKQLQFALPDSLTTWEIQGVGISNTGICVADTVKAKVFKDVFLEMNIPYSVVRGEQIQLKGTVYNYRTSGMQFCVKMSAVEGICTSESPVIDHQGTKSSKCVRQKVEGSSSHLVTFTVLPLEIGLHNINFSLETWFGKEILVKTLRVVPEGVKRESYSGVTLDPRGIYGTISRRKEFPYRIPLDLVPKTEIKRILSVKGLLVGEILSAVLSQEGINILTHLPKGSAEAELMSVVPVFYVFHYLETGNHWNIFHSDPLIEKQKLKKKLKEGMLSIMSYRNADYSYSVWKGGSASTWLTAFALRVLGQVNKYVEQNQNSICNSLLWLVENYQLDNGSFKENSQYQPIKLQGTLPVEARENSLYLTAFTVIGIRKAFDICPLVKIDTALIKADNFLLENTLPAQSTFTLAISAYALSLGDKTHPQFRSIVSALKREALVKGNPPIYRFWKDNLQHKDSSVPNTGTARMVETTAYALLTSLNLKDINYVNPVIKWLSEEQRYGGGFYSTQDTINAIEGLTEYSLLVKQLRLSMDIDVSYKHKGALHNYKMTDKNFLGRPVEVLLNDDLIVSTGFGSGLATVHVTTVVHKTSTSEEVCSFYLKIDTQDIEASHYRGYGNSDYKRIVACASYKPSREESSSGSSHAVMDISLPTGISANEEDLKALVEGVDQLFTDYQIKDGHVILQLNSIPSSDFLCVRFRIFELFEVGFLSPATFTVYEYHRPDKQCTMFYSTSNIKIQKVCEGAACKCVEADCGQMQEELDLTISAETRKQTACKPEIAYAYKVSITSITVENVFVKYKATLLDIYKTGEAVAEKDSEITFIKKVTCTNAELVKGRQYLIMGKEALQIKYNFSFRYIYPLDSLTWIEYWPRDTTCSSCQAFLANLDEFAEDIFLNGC", "assay": "Red blood cell (RBC) hemolysis assay, optical, absorbance 412 nm (Example 10, Table 19)", "type": "cell-based", "details": "antibody-sensitized sheep erythrocytes, […] human C5 depleted sera, 0.5 nM purified human C5, absorbance 412 nm; read-out: RBC Hemolysis IC50"}, "[2]": {"molecular_target": "T1, Human C5 (Homo sapiens, UniProt P01031)", "T1 construct": "purchased Complement Technology", "T1 sequence (P01031 19-1676)": "as above", "assay": "Surface plasmon resonance (SPR), immobilized human C5 (Example 9, Table 18)", "type": "binding", "details": "immobilized human C5, equilibrium dissociation constant; read-out: SPR C5 EQ KD", "source_text": "Morrison and Boyd in “Organic Chemistry”, 6th edition, Prentice Hall (1992)] and validated for proper structure by mass spectrometry."}}}
{"smiles": "COc1ccc(NC(=O)NCc2ccnc3c2ccn3CCNS(C)(=O)=O)cc1OCCCC(C)C", "note": "[Compound C5INH-0409]", "values": [{"measurement": "IC50", "setting": "[1]", "value": 477, "unit": "nM"}, {"measurement": "Kd", "setting": "[2]", "value": 110, "unit": "nM"}]}
{"smiles": "COc1ccc(NC(=O)NCc2ccc3c(N)n[nH]c3c2)cc1OCCCC(C)C", "note": "[Compound C5INH-0458]", "values": [{"measurement": "IC50", "setting": "[1]", "value": 416, "unit": "nM"}, {"measurement": "Kd", "setting": "[2]", "value": 225, "unit": "nM"}]}
{"smiles": "COc1ccc(NC(=O)NCc2cccc(C(=N)N)c2)cc1OCCCC(C)C", "note": "[Compound C5INH-0303]", "values": [{"measurement": "IC50", "setting": "[1]", "value": 2940, "unit": "nM"}, {"measurement": "Kd", "setting": "[2]", "value": 710, "unit": "nM"}]}
{"smiles": "COc1ccc(NC(=O)NCc2cccc(CO)c2)cc1OCCCC(C)C", "note": "[Compound C5INH-0342]", "values": [{"measurement": "IC50", "setting": "[1]", "value": 1540, "unit": "nM"}, {"measurement": "Kd", "setting": "[2]", "value": 180, "unit": "nM"}]}
{"smiles": "COc1ccc(NC(=O)NCc2cccnc2OC)cc1OCCCC(C)C", "note": "[Compound C5INH-0310]", "values": [{"measurement": "IC50", "setting": "[1]", "value": 203, "unit": "nM"}, {"measurement": "Kd", "setting": "[2]", "value": 40, "unit": "nM"}]}
{"smiles": "COc1ccc(F)cc1CNC(=O)Nc1ccc(OC)c(OCCCC(C)C)c1", "note": "[Compound C5INH-0484]", "values": [{"measurement": "IC50", "setting": "[1]", "value": 150, "unit": "nM"}, {"measurement": "Kd", "setting": "[2]", "value": 770, "unit": "nM"}]}
{"smiles": "COc1ccc(NC(=O)NCc2ccccc2N)cc1OCCCC(C)C", "note": "[Compound C5INH-0343]", "values": [{"measurement": "IC50", "setting": "[1]", "value": 3040, "unit": "nM"}, {"measurement": "Kd", "setting": "[2]", "value": 800, "unit": "nM"}]}
{"smiles": "COCCNc1cc(CNC(=O)Nc2ccc(OC)c(OCCCC(C)C)c2)ccn1", "note": "[Compound C5INH-0390]", "values": [{"measurement": "IC50", "setting": "[1]", "value": 698, "unit": "nM"}, {"measurement": "Kd", "setting": "[2]", "value": 257, "unit": "nM"}]}
{"smiles": "COc1ccc(NC(=O)NCc2ccc(N)nc2)cc1OCCCC(C)C", "note": "[Compound C5INH-0428]", "values": [{"measurement": "IC50", "setting": "[1]", "value": 3060, "unit": "nM"}, {"measurement": "Kd", "setting": "[2]", "value": 530, "unit": "nM"}]}
{"smiles": "COc1ccc(NC(=O)NCc2cccc(N3CCN(C)CC3)c2)cc1OCCCC(C)C", "note": "[Compound C5INH-0369]", "values": [{"measurement": "IC50", "setting": "[1]", "value": 592, "unit": "nM"}, {"measurement": "Kd", "setting": "[2]", "value": 104, "unit": "nM"}]}
{"smiles": "COc1ccc(NC(=O)NCc2cc(F)ccc2O)cc1OCCCC(C)C", "note": "[Compound C5INH-0473]", "values": [{"measurement": "IC50", "setting": "[1]", "value": 21.5, "unit": "nM"}, {"measurement": "Kd", "setting": "[2]", "value": 69, "unit": "nM"}]}
{"smiles": "COc1ccc(C(CO)NC(=O)Nc2ccc(OC)c(OCCCC(C)C)c2)cc1OC", "note": "(stereo not drawn) [Compound C5INH-0352]", "values": [{"measurement": "IC50", "setting": "[1]", "value": 2950, "unit": "nM"}, {"measurement": "Kd", "setting": "[2]", "value": 700, "unit": "nM"}]}
{"smiles": "COc1cc(CC(=O)N(C)C)c(NC(=O)N[C@@H](CO)c2ccccc2)cc1OCCCC(C)C", "note": "[Compound C5INH-0440]", "values": [{"measurement": "IC50", "setting": "[1]", "value": 3160, "unit": "nM"}, {"measurement": "Kd", "setting": "[2]", "value": 7600, "unit": "nM"}]}
{"smiles": "COc1ccc(NC(=O)NCc2cccc3[nH]ccc23)cc1OCCCC(C)C", "note": "[Compound C5INH-0537]", "values": [{"measurement": "IC50", "setting": "[1]", "value": 138, "unit": "nM"}, {"measurement": "Kd", "setting": "[2]", "value": 81, "unit": "nM"}]}
{"smiles": "COc1ccc(NC(=O)N[C@@H](CO)c2ccccc2)cc1OCCc1cccs1", "note": "[Compound C5INH-0349]", "values": [{"measurement": "IC50", "setting": "[1]", "value": 1500, "unit": "nM"}, {"measurement": "Kd", "setting": "[2]", "value": 1210, "unit": "nM"}]}
{"smiles": "COc1ccc(NC(=O)NCc2ccc3c(ccn3CCN(C)C)c2)cc1OCCCC(C)C", "note": "[Compound C5INH-0414]", "values": [{"measurement": "IC50", "setting": "[1]", "value": 781, "unit": "nM"}, {"measurement": "Kd", "setting": "[2]", "value": 500, "unit": "nM"}]}
{"smiles": "COc1cc(CN(C)C(C)=O)c(NC(=O)NCc2ccnc3[nH]ccc23)cc1OCCCC(C)C", "note": "[Compound C5INH-0527]", "values": [{"measurement": "IC50", "setting": "[1]", "value": 2270, "unit": "nM"}, {"measurement": "Kd", "setting": "[2]", "value": 650, "unit": "nM"}]}
{"smiles": "COc1ccc(NC(=O)N(CCN2CCOCC2)Cc2cccc3c2ccn3CCN2CCOCC2)cc1OCCCC(C)C", "note": "[Compound C5INH-0438]", "values": [{"measurement": "IC50", "setting": "[1]", "value": 3000, "unit": "nM"}, {"measurement": "Kd", "setting": "[2]", "value": 2780, "unit": "nM"}]}
{"smiles": "COc1ccc(NC(=O)NCc2ccnc3c2ccn3CC2CCCN2C)cc1OCCCC(C)C", "note": "(stereo not drawn) [Compound C5INH-0545]", "values": [{"measurement": "IC50", "setting": "[1]", "value": 89.5, "unit": "nM"}, {"measurement": "Kd", "setting": "[2]", "value": 31, "unit": "nM"}]}
{"smiles": "COc1ccc(NC(=O)N(C)Cc2cccc3ccn(C)c23)cc1OCCCC(C)C", "note": "[Compound C5INH-0492]", "values": [{"measurement": "IC50", "setting": "[1]", "value": 2650, "unit": "nM"}, {"measurement": "Kd", "setting": "[2]", "value": 2070, "unit": "nM"}]}
{"smiles": "COc1ccc(NC(=O)NCc2cccc(NC(C)=O)c2)cc1OCCCC(C)C", "note": "[Compound C5INH-0496]", "values": [{"measurement": "IC50", "setting": "[1]", "value": 400, "unit": "nM"}, {"measurement": "Kd", "setting": "[2]", "value": 600, "unit": "nM"}]}
{"smiles": "COc1ccc(NC(=O)NCc2ccnc(OCCN)c2)cc1OCCCC(C)C", "note": "[Compound C5INH-0382]", "values": [{"measurement": "IC50", "setting": "[1]", "value": 312, "unit": "nM"}, {"measurement": "Kd", "setting": "[2]", "value": 181, "unit": "nM"}]}
{"smiles": "COc1ccc(NC(=O)NCc2ccc3c(ccn3CC(=O)N(C)C)c2)cc1OCCCC(C)C", "note": "[Compound C5INH-0447]", "values": [{"measurement": "IC50", "setting": "[1]", "value": 536, "unit": "nM"}, {"measurement": "Kd", "setting": "[2]", "value": 204, "unit": "nM"}]}
{"smiles": "COc1ccc(NC(=O)N[C@@H](CO)c2ccccc2)cc1NCCCC(C)C", "note": "[Compound C5INH-0336]", "values": [{"measurement": "IC50", "setting": "[1]", "value": 473, "unit": "nM"}, {"measurement": "Kd", "setting": "[2]", "value": 164, "unit": "nM"}]}
